Test results from patent publication US20240400553A1, “AMINE BASED MATRIPTASE 2 INHIBITORS AND USES THEREOF” (Disc Medicine, Inc., priority 2023, published 2024).

Molecular target: T1, Human Recombinant Matriptase 2 (Homo sapiens, UniProt Q8IU80)
T1 construct: made in house
T1 sequence (Q8IU80 1-811): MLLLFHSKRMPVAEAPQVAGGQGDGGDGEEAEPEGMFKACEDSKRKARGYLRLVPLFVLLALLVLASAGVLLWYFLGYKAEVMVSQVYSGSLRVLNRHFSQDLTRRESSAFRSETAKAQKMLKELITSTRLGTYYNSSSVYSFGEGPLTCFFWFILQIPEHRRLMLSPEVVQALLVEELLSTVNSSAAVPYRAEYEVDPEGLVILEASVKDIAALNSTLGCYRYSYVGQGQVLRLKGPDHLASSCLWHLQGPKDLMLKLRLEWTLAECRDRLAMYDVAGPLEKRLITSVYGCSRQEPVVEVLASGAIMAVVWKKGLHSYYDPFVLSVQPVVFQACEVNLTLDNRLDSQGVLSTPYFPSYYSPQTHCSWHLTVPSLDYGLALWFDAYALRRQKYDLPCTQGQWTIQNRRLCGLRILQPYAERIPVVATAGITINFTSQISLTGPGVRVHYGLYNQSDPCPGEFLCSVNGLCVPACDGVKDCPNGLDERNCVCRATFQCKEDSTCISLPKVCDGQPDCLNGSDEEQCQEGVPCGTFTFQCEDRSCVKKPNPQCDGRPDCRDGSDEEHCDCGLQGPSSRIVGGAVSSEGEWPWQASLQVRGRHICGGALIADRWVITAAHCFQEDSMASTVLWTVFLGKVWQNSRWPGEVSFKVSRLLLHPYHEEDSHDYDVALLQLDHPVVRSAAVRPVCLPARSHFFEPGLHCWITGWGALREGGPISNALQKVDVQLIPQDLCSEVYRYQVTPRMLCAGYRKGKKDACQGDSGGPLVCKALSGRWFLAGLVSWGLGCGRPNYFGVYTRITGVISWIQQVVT
Assay: Matriptase 2 inhibition, fluorescence based assay (Method I)
Format: biochemical
Details: Table A; Ki of Matriptase-2; read-out: Mat-2 Ki
Summary of the method: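 Fluorogenic readout (Ex 360/Em 480 nm) taken 60 min after adding 62 μM Boc-Gln-Ala-Arg-AMC, following 30-min enzyme–compound preincubation at 25 °C. Conditions: 3.5 nM in-house enzyme, pH 7.5 Tris/NaCl/gelatin buffer, 1% DMSO; percent inhibition versus concentration fitted by variable-slope sigmoidal regression.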

Row | SMILES | Ki
1 | CN1CCC(CCS(=O)(=O)NC(=O)c2cc3ccc(CN)nc3n2Cc2cc(NS(=O)(=O)Cc3ccccc3)cc3ccccc23)CC1 [Compound 83, 6-(aminomethyl)-N-[2-(1-methylpiperidin-4-yl)-ethanesulfonyl]-1-{[3-(phenylmethanesulfon-amido)naphthalen-1-yl]-methyl}-1H-pyrrolo[2,3-b]pyridine-2-carboxamide] | 100 to 500 nM
2 | NCc1ccc2cc(C(=O)OCc3ccccn3)n(Cc3cc(NS(=O)(=O)Cc4ccccc4)cc4ccccc34)c2n1 [Compound 85, (pyridin-2-yl)methyl 6-(aminomethyl)-1-{[3-(phenylmethanesulfon-amido)naphthalen-1-yl]-methyl}-1H-pyrrolo[2,3-b]pyridine-2-carboxylate] | 100 to 500 nM
3 | NCc1ccc2cc(C(=O)OCCn3cnnn3)n(Cc3cc(NS(=O)(=O)Cc4ccccc4)cc4ccccc34)c2n1 [Compound 86, 2-(1H-1,2,3,4-tetrazol-1-yl)ethyl 6-(amino-methyl)-1-{[3-(phenyl-methanesulfonamido)-naphthalen-1-yl]methyl}-1H-pyrrolo[2,3-b]pyr-idine-2-carboxylate] | 100 to 500 nM
4 | CC(C)n1cnc(COC(=O)c2cc3ccc(CN)nc3n2Cc2cc(NS(=O)(=O)Cc3ccccc3)cc3ccccc23)c1 [Compound 87, [1-(propan-2-yl)-1H-imidazol-4-yl]methyl 6-(aminomethyl)-1-{[3-(phenylmethanesulfon-amido)naphthalen-1-yl]-methyl}-1H-pyrrolo[2,3-b]pyridine-2-carboxylate] | 100 to 500 nM
5 | Cc1oc(=O)oc1COC(=O)c1cc2ccc(CN)nc2n1Cc1cc(NS(=O)(=O)Cc2ccccc2)cc2ccccc12 [Compound 88, (5-methyl-2-oxo-2H-1,3-dioxol-4-yl)methyl 6-(aminomethyl)-1-{[3-(phenylmethanesulfon-amido)naphthalen-1-yl]-methyl}-1H-pyrrolo[2,3-b]pyridine-2-carboxylate] | 100 to 500 nM
6 | CC(C)n1ccc(COC(=O)c2cc3ccc(CN)nc3n2Cc2cc(NS(=O)(=O)Cc3ccccc3)cc3ccccc23)n1 [Compound 90, [1-(propan-2-yl)-1H-pyrazol-3-yl]methyl 6-(aminomethyl)-1-{[3-(phenylmethanesulfon-amido)naphthalen-1-yl]-methyl}-1H-pyrrolo[2,3-b]pyridine-2-carboxylate] | 100 to 500 nM
7 | NCCOC(=O)c1cc2ccc(CN)nc2n1Cc1cc(NS(=O)(=O)Cc2ccccc2)cc2ccccc12 [Compound 91, 2-aminoethyl 6-(amino-methyl)-1-{[3-(phenyl-methanesulfonamido)naphthalen-1-yl]methyl}-1H-pyrrolo[2,3-b]pyr-idine-2-carboxylate] | 100 to 500 nM
8 | NCc1ccc2cc(C(=O)OCCn3ccnn3)n(Cc3cc(NS(=O)(=O)Cc4ccccc4)cc4ccccc34)c2n1 [Compound 92, 2-(1H-1,2,3-triazol-1-yl-ethyl 6-(aminomethyl)-1-{[3-(phenylmethane-sulfonamido)naphthalen-1-yl]methyl}-1H-pyrrolo-[2,3-b]pyridine-2-carbox-ylate] | 100 to 500 nM
9 | COCCOC(=O)c1cc2ccc(CN)nc2n1Cc1cc(NS(=O)(=O)Cc2ccccc2)cc2ccccc12 [Compound 95, 2-methoxyethyl 6-(aminomethyl)-1-{[3-(phenylmethanesulfon-amido)naphthalen-1-yl]-methyl}-1H-pyrrolo[2,3-b]pyridine-2-carboxylate] | 100 to 500 nM
10 | CC(C)(C)n1cnc(COC(=O)c2cc3ccc(CN)nc3n2Cc2cc(NS(=O)(=O)Cc3ccccc3)cc3ccccc23)c1 [Compound 96, (1-tert-butyl-1H-imid-azol-4-yl)methyl 6-(aminomethyl)-1-{[3-(phenylmethanesulfon-amido)naphthalen-1-yl]-methyl}-1H-pyrrolo[2,3-b]pyridine-2-carboxylate] | 100 to 500 nM
11 | NCc1ccc2cc(C(=O)OCCn3cncn3)n(Cc3cc(NS(=O)(=O)Cc4ccccc4)cc4ccccc34)c2n1 [Compound 97] | 100 to 500 nM
12 | NCc1ccc2cc(C(=O)OCc3ccncc3)n(Cc3cc(NS(=O)(=O)Cc4ccccc4)cc4ccccc34)c2n1 [Compound 100, (pyridin-4-yl)methyl 6-(aminomethyl)-1-{[3-(phenylmethanesulfon-amido)naphthalen-1-yl]-methyl}-1H-pyrrolo[2,3-b]pyridine-2-carboxylate] | 100 to 500 nM
13 | NCc1ccc2cc(C(=O)OCc3cn(CC(F)(F)F)cn3)n(Cc3cc(NS(=O)(=O)Cc4ccccc4)cc4ccccc34)c2n1 [Compound 101, [1-(2,2,2-trifluoroethyl)-1H-imidazol-4-yl]methyl 6-(aminomethyl)-1-{[3-(phenylmethanesulfon-amido)naphthalen-1-yl]-methyl}-1H-pyrrolo[2,3-b]pyridine-2-carboxylate] | 100 to 500 nM
14 | NCc1ccc2cc(C(=O)OCCF)n(Cc3cc(NS(=O)(=O)Cc4ccccc4)cc4ccccc34)c2n1 [Compound 105, 2-fluoroethyl 6-(amino-methyl)-1-{[3-(phenyl-methanesulfonamido)-naphthalen-1-yl]methyl}-1H-pyrrolo[2,3-b]pyr-idine-2-carboxylate] | 100 to 500 nM
15 | NCc1ccc2cc(C(=O)OCC3CCN(CC(F)F)CC3)n(Cc3cc(NS(=O)(=O)Cc4ccccc4)cc4ccccc34)c2n1 [Compound 107, [1-(2,2-difluoroethyl)-piperidin-4-yl]methyl 6-(aminomethyl)-1-{[3-(phenylmethanesulfon-amido)naphthalen-1-yl]-methyl}-1H-pyrrolo[2,3-b]pyridine-2-carboxylate] | 100 to 500 nM
16 | CN(c1cc(Cn2c(C(=O)O)cc3ccc(CN)nc32)c2ccccc2c1)S(=O)(=O)Cc1ccccc1 [Compound 109, 6-(aminomethyl)-1-{[3-(N-methylphenylmeth-anesulfonamido)naph-thalen-1-yl]methyl}-1H-pyrrolo[2,3-b]pyridine-2-carboxylic acid] | 100 to 500 nM

The next lines start with the values.

Row | Ki | SMILES
17 | 100 to 500 nM | NCc1ccc2cc(C(=O)OCCO)n(Cc3cc(NS(=O)(=O)Cc4ccccc4)cc4ccccc34)c2n1 [Compound 82, 2-hydroxyethyl 6-(amino-methyl)-1-{[3-(phenyl-methanesulfonamido)-naphthalen-1-yl]methyl}-1H-pyrrolo[2,3-b]pyr-idine-2-carboxylate]
18 | 100 to 500 nM | NCc1ccc2cc(C(=O)OCCS(N)(=O)=O)n(Cc3cc(NS(=O)(=O)Cc4ccccc4)cc4ccccc34)c2n1 [Compound 84, 2-sulfamoylethyl 6-(aminomethyl)-1-{[3-(phenylmethanesulfon-amido)naphthalen-1-yl]-methyl}-1H-pyrrolo[2,3-b]pyridine-2-carboxylate]
19 | 100 to 500 nM | NCc1ccc2cc(C(=O)OCCn3ccnc3)n(Cc3cc(NS(=O)(=O)Cc4ccccc4)cc4ccccc34)c2n1 [Compound 93, 2-(1H-imidazol-1-yl)-ethyl 6-(aminomethyl)-1-{[3-(phenylmethanesul-fonamido)naphthalen-1-yl]methyl}-1H-pyrrolo-[2,3-b]pyridine-2-car-boxylate]
20 | 100 to 500 nM | NCc1ccc2cc(C(=O)OCCNC(N)=O)n(Cc3cc(NS(=O)(=O)Cc4ccccc4)cc4ccccc34)c2n1 [Compound 94, 2-(carbamoylamino)-ethyl 6-(aminomethyl)-1-{[3-(phenylmethanesul-fonamido)naphthalen-1-yl]methyl}-1H-pyrrolo-[2,3-b]pyridine-2-carbox-ylate]
21 | 100 to 500 nM | NCc1ccc2cc(C(=O)OCCC3CCOCC3)n(Cc3cc(NS(=O)(=O)Cc4ccccc4)cc4ccccc34)c2n1 [Compound 102, 2-(oxan-4-yl)ethyl 6-(aminomethyl)-1-{[3-(phenylmethanesulfon-amido)naphthalen-1-yl]-methyl}-1H-pyrrolo[2,3-b]pyridine-2-carboxylate]
22 | 100 to 500 nM | NCc1ccc2cc(C(=O)OCc3cncn3CC(F)(F)F)n(Cc3cc(NS(=O)(=O)Cc4ccccc4)cc4ccccc34)c2n1 [Compound 103, [1-(2,2,2-trifluoroethyl)-1H-imidazol-5-yl]methyl 6-(aminomethyl)-1-{[3-(phenylmethanesulfon-amido)naphthalen-1-yl]-methyl}-1H-pyrrolo[2,3-b]pyridine-2-carboxylate]
23 | 100 to 500 nM | CC(C)(C)n1cncc1CCOC(=O)c1cc2ccc(CN)nc2n1Cc1cc(NS(=O)(=O)Cc2ccccc2)cc2ccccc12 [Compound 104, 2-(1-tert-butyl-1H-imid-azol-5-yl)ethyl 6-(amino-methyl)-1-{[3-(phenyl-methanesulfonamido)-naphthalen-1-yl]methyl}-1H-pyrrolo[2,3-b]pyr-idine-2-carboxylate]
24 | 100 to 500 nM | CC(C)(C)n1ccc(COC(=O)c2cc3ccc(CN)nc3n2Cc2cc(NS(=O)(=O)Cc3ccccc3)cc3ccccc23)n1 [Compound 106, (1-tert-butyl-1H-pyrazol-3-yl)methyl 6-(amino-methyl)-1-{[3-(phenyl-methanesulfonamido)-naphthalen-1-yl]methyl}-1H-pyrrolo[2,3-b]pyr-idine-2-carboxylate]
